Measured values: patent publication US8962596B2 (Array BioPharma Inc., priority 2010, dated 2015)
pIC50: −log10 of the molar value.

Columns and labels:
Format in all cases: biochemical
Human Tyk2 kinase domain = molecular target: T1, Human Tyk2 kinase domain (Homo sapiens, UniProt P29597); assay: Tyk2 Inhibition Assay (Omnia kinase fluorescence peptide substrate assay); details: averaged IC50 ranges; assay of Example A; 10 μM (Km app) or 1 mM ATP, 2 nM Tyk2
T1 construct: comprising amino acids 886 to 1187 with 10 additional histidine residues; 10xHis (histidine tag) (C, cleaved yes); made in house
T1 sequence (P29597 886-1187): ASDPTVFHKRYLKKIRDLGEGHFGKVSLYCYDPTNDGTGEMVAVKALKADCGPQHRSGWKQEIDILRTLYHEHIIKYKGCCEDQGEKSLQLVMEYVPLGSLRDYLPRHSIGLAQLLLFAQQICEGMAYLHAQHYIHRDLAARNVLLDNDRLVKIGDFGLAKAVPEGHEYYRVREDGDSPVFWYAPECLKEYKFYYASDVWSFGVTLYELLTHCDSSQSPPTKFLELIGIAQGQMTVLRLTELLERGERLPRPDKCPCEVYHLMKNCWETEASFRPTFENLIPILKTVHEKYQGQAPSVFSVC
How it was run: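 2 nM His-tag-cleaved kinase domain (aa 886–1187) with 8 μM Omnia Y12 peptide, 10 μM (Km app) or 1 mM ATP, pH 7.4 HEPES/10 mM MgCl2, 2% DMSO. Fluorescence (ex 360/em 485 nm) every 50 s for 45 min; IC50 from 4-parameter fit of POC, top dose 10 μM.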

JAK1 = molecular target: T2, JAK1 (Homo sapiens, UniProt P23458); assay: JAK1 Inhibition Assay (Omnia kinase fluorescence peptide substrate assay); details: averaged IC50 ranges; assay of Example B; 40 μM (Km app) or 1 mM ATP, 15 nM JAK1
T2 construct: purchased Invitrogen Corporation, Carlsbad, Calif; PV4775
T2 sequence (P23458 whole entry): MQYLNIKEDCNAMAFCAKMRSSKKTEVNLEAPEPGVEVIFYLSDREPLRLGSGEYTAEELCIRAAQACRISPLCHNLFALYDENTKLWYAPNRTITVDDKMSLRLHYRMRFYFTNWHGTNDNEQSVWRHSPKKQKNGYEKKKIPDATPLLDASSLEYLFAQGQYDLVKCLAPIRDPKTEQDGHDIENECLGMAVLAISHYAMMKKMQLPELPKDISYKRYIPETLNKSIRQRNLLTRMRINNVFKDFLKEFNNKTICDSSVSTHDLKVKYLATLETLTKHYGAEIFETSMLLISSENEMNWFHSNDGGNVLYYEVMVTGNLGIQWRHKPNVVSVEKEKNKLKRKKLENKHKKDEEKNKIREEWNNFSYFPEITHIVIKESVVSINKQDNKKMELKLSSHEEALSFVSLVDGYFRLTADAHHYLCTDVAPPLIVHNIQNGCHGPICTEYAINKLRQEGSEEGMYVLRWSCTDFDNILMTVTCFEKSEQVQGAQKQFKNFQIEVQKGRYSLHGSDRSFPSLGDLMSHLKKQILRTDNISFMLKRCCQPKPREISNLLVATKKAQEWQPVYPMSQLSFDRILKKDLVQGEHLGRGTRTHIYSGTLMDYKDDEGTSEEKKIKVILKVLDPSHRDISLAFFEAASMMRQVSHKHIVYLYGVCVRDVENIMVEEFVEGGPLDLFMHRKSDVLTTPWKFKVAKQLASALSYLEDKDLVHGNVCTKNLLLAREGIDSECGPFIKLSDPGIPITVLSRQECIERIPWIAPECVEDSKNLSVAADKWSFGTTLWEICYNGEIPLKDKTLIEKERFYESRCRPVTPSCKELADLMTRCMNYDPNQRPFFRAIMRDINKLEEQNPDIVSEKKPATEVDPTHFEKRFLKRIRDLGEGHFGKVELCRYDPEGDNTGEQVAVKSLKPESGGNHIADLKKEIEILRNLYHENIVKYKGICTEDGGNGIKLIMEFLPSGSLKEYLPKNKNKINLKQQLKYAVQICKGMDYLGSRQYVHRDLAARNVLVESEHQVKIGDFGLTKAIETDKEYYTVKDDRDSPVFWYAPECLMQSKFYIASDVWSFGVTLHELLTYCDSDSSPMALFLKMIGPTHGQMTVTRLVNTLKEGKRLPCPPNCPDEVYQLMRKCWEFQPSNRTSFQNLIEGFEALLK

JAK2 = molecular target: T3, JAK2 (Homo sapiens, UniProt O60674); assay: JAK2 Inhibition Assay (Omnia kinase fluorescence peptide substrate assay); details: averaged IC50 ranges; assay of Example C; 25 μM (Km app) or 1 mM ATP, 5 nM JAK2
T3 construct: purchased Invitrogen Corporation, Carlsbad, Calif; PV4288
T3 sequence (O60674 whole entry): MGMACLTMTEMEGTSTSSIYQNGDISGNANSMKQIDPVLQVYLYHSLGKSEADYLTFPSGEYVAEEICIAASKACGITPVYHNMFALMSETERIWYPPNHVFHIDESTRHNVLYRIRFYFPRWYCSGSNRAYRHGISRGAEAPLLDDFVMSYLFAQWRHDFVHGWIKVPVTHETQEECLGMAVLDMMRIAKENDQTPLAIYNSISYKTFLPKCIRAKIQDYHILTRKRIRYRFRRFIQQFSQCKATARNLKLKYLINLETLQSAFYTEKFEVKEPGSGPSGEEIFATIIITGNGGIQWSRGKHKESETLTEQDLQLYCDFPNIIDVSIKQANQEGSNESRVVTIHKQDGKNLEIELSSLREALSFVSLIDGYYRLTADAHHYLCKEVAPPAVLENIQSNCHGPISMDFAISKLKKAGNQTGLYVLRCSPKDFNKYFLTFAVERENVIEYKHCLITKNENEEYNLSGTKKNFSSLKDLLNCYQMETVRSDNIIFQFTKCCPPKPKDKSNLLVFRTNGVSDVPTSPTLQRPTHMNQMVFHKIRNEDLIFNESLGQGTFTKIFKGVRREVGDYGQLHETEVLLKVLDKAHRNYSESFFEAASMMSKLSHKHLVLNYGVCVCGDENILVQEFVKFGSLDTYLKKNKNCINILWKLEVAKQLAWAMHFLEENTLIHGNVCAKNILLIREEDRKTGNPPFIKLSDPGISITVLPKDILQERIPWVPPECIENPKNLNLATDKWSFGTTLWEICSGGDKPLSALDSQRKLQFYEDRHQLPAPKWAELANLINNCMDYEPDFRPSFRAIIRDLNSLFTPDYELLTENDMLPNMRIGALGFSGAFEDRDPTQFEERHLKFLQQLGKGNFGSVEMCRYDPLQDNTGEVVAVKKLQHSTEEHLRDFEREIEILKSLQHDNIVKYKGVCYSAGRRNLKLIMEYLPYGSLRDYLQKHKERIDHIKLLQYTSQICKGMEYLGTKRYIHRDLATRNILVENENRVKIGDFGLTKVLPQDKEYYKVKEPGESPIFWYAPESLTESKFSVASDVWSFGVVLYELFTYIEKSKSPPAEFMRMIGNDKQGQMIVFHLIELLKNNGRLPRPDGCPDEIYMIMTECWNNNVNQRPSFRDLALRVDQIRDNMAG
How it was run: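 5 nM JAK2 phosphorylated 10 μM Omnia Y7 peptide with ATP at 25 μM (Km app) or 1 mM, in 25 mM HEPES pH 7.4, 10 mM MgCl2, 0.01% Triton X-100, 1 mM DTT, 2% DMSO. Fluorescence (360/485 nm) was read every 50 s for 45 min. 10-point 3-fold series from 10 μM; POC versus uninhibited and background controls, 4-parameter logistic IC50.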

JAK3 = molecular target: T4, JAK3 (Homo sapiens, UniProt P52333); assay: JAK3 Inhibition Assay (Omnia kinase fluorescence peptide substrate assay); details: averaged IC50 ranges; assay of Example D; 10 μM (Km app) or 1 mM ATP, 2.5 nM JAK3
T4 construct: purchased Invitrogen Corporation, Carlsbad, Calif; PV4080
T4 sequence (P52333 1-1124): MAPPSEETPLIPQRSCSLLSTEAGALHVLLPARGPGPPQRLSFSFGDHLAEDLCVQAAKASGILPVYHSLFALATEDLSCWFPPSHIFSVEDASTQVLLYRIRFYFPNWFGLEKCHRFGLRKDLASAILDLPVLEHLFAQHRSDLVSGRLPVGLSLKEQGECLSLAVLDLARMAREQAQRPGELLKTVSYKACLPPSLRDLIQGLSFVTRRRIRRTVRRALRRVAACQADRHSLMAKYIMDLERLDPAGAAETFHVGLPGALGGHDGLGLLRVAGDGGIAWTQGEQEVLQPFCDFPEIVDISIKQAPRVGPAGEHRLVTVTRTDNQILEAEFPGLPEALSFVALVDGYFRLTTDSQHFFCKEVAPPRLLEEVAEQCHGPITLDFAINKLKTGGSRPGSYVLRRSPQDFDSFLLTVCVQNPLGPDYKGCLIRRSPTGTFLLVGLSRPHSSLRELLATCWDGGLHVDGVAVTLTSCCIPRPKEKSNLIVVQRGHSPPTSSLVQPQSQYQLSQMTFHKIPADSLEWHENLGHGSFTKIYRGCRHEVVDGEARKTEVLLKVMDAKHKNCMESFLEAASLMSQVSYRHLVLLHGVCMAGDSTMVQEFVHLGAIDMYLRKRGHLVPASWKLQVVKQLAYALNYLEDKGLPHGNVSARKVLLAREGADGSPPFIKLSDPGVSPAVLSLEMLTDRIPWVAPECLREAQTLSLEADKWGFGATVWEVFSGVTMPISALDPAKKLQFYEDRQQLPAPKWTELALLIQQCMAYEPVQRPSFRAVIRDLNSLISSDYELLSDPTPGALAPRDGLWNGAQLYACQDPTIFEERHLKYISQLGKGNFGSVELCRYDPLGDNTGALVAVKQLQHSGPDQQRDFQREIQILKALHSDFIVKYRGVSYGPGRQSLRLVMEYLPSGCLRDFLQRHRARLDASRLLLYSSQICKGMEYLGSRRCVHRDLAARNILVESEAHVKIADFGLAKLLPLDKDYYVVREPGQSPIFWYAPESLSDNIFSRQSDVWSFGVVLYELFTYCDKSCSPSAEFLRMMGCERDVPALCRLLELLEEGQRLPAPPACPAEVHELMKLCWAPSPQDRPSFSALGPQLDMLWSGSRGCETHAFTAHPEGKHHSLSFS
How it was run: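 Kinase at 2.5 nM with 10 µM Omnia Y7 peptide and 10 µM (Km app) or 1 mM ATP in 25 mM HEPES pH 7.4, 10 mM MgCl2, 1 mM DTT, 0.01% Triton X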

SMILES | pIC50 (Human Tyk2 kinase domain) | pIC50 (JAK1) | pIC50 (JAK2) | pIC50 (JAK3)
N#CCC(C1CCCC1)n1cc(-c2nc(-c3ccc(N4CCOCC4)cc3)cc3nccn23)cn1 (single isomer, unassigned) [Example 114, 3-cyclopentyl-3-(4-(7-(4-morpholinophenyl)imidazo[1,2-c]pyrimidin-5-yl)-1H-pyrazol-1-yl)propanenitrile] | > 8.00 | 6.00 to 7.00 | 7.00 to 8.00 | 6.00 to 7.00
N#CCC(C1CC1)n1cc(-c2nc(-c3cn[nH]c3)cc3nccn23)cn1 (centres unmarked) [Example 33, 3-(4-(7-(1H-pyrazol-4-yl)imidazo[1,2-c]pyrimidin-5-yl)-1H-pyrazol-1-yl)-3-cyclopropylpropanenitrile] | 7.00 to 8.00 | 6.00 to 7.00 | 6.00 to 7.00 | < 6.00
N#CCC1(n2cc(-c3nc(-c4cnn(C5COC5)c4)cc4nccn34)cn2)CN(CC(F)(F)C(F)(F)F)C1 [Example 157, 2-(3-(4-(7-(1-(oxetan-3-yl)-1H-pyrazol-4-yl)imidazo[1,2-c]pyrimidin-5-yl)-1H-pyrazol-1-yl)-1-(2,2,3,3,3-pentafluoropropyl)azetidin-3-yl)acetonitrile] | 7.00 to 8.00 | 6.00 to 7.00 | 7.00 to 8.00 | < 6.00
Cn1cc(-c2cc3nccn3c(-c3cnn(C(CC#N)c4ccccc4)c3)n2)cn1 (centres unmarked) [Example 11, 3-(4-(7-(1-methyl-1H-pyrazol-4-yl)imidazo[1,2-c]pyrimidin-5-yl)-1H-pyrazol-1-yl)-3-phenylpropanenitrile] | > 8.00 | 7.00 to 8.00 | 7.00 to 8.00 | 6.00 to 7.00
Cc1ncc(-c2cc3nccn3c(-c3cnn(C4(CC#N)CN(S(=O)(=O)C(F)(F)F)C4)c3)n2)s1 [Example 139, 2-(3-(4-(7-(2-methylthiazol-5-yl)imidazo[1,2-c]pyrimidin-5-yl)-1H-pyrazol-1-yl)-1-(trifluoromethylsulfonyl)azetidin-3-yl)acetonitrile] | > 8.00 | 7.00 to 8.00 | 7.00 to 8.00 | < 6.00
CN1CCn2c(-c3cc4nccn4c(-c4cnn(C(CC#N)C5CC5)c4)n3)cnc2C1 (centres unmarked) [Example 57, 3-cyclopropyl-3-(4-(7-(7-methyl-5,6,7,8-tetrahydroimidazo[1,2-a]pyrazin-3-yl)imidazo[1,2-c]pyrimidin-5-yl)-1H-pyrazol-1-yl)propanenitrile] | 7.00 to 8.00 | 6.00 to 7.00 | 6.00 to 7.00 | < 6.00
Cn1cc(-c2cc3ncc(Cl)n3c(-c3cnn(C4(CC#N)CN(CC(F)(F)F)C4)c3)n2)cn1 [Example 90, 2-(3-(4-(3-Chloro-7-(1-methyl-1H-pyrazol-4-yl)imidazo[1,2-c]pyrimidin-5-yl)-1H-pyrazol-1-yl)-1-(2,2,2-trifluoroethyl)azetidin-3-yl)acetonitrile] | > 8.00 | 6.00 to 7.00 | 7.00 to 8.00 | 6.00 to 7.00
Cn1cc(-c2cc3nccn3c(-c3cnn(C(CC#N)c4ccc(Cl)cc4)c3)n2)cn1 (centres unmarked) [Example 14, 3-(4-chlorophenyl)-3-(4-(7-(1-methyl-1H-pyrazol-4-yl)imidazo[1,2-c]pyrimidin-5-yl)-1H-pyrazol-1-yl)propanenitrile] | 7.00 to 8.00 | 7.00 to 8.00 | 7.00 to 8.00 | 6.00 to 7.00
Cn1cc(-c2cc3nccn3c(-c3cnn(C4(CC#N)CC5(CCC5)C4)c3)n2)cn1 [Example 160, 2-(2-(4-(7-(1-methyl-1H-pyrazol-4-yl)imidazo[1,2-c]pyrimidin-5-yl)-1H-pyrazol-1-yl)spiro[3.3]heptan-2-yl)acetonitrile] | > 8.00 | 6.00 to 7.00 | 7.00 to 8.00 | 6.00 to 7.00
N#CCC(C1CC1)n1cc(-c2nc(-c3cnn(C4CCC4)c3)cc3nccn23)cn1 (centres unmarked) [Example 42, 3-(4-(7-(1-cyclobutyl-1H-pyrazol-4-yl)imidazo[1,2-c]pyrimidin-5-yl)-1H-pyrazol-1-yl)-3-cyclopropylpropanenitrile] | > 8.00 | 7.00 to 8.00 | 7.00 to 8.00 | 6.00 to 7.00
Cn1cc(-c2cc3nccn3c(-c3cnn(C4(CC#N)CN(S(=O)(=O)c5ccccc5)C4)c3)n2)cn1 [Example 99, 2-(3-(4-(7-(1-methyl-1H-pyrazol-4-yl)imidazo[1,2-c]pyrimidin-5-yl)-1H-pyrazol-1-yl)-1-(phenylsulfonyl)azetidin-3-yl)acetonitrile] | 7.00 to 8.00 | 6.00 to 7.00 | 6.00 to 7.00 | < 6.00
CC(C)n1cc(-c2cc3nccn3c(-c3cnn(C4(CC#N)CN(CC(F)(F)F)C4)c3)n2)cn1 [Example 100, 2-(3-(4-(7-(1-Isopropyl-1-H-pyrazol-4-yl)imidazo[1,2-c]pyrimidin-5-yl)-1H-pyrazol-1-yl)-1-(2,2,2-trifluoroethyl)azetidin-3-yl)acetonitrile] | > 8.00 | 6.00 to 7.00 | 7.00 to 8.00 | < 6.00
N#CCC1(n2cc(-c3nc(-c4cnn(C5COC5)c4)cc4nccn34)cn2)CC2(CCC2)C1 [Example 162, 2-(2-(4-(7-(1-(oxetan-3-yl)-1H-pyrazol-4-yl)imidazo[1,2-c]pyrimidin-5-yl)-1H-pyrazol-1-yl)spiro[3.3]heptan-2-yl)acetonitrile] | > 8.00 | 6.00 to 7.00 | 7.00 to 8.00 | 6.00 to 7.00
CCn1cc(-c2cc3nccn3c(-c3cnn(C(CC#N)C4CC4)c3)n2)cn1 (centres unmarked) [Example 40, 3-cyclopropyl-3-(4-(7-(1-ethyl-1H-pyrazol-4-yl)imidazo[1,2-c]pyrimidin-5-yl)-1H-pyrazol-1-yl)propanenitrile] | > 8.00 | 6.00 to 7.00 | 7.00 to 8.00 | 6.00 to 7.00
Cn1cc(-c2cc3nccn3c(-c3ccn(C(CC#N)C4CC4)c3)n2)cn1 (centres unmarked) [Example 126, 3-Cyclopropyl-3-(3-(7-(1-methyl-1H-pyrazol-4-yl)imidazo[1,2-c]pyrimidin-5-yl)-1H-pyrrol-1-yl)propanenitrile] | > 8.00 | 7.00 to 8.00 | 7.00 to 8.00 | 6.00 to 7.00
N#CCC(C1CC1)n1cc(-c2nc(-c3cnn(CC(F)(F)F)c3)cc3nccn23)cn1 (centres unmarked) [Example 39, 3-cyclopropyl-3-(4-(7-(1-(2,2,2-trifluoroethyl)-1H-pyrazol-4-yl)imidazo[1,2-c]pyrimidin-5-yl)-1H-pyrazol-1-yl)propanenitrile] | > 8.00 | 7.00 to 8.00 | 7.00 to 8.00 | 6.00 to 7.00
Cn1cc(-c2cc3nccn3c(-c3ccn(C4(CC#N)CN(S(=O)(=O)C5CC5)C4)c3)n2)cn1 [Example 136] | > 8.00 | 7.00 to 8.00 | 7.00 to 8.00 | < 6.00
